From ChEMBL document CHEMBL1201861, “Genomics of Drug Sensitity in Cancer screening data, Wellcome Trust Sanger Institute”
pIC50: −log10 of the molar value.

Tested on: DSH1;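 further: growth inhibition of human DSH1 cells, measured with a cell viability readout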
Assay: cells
Format: functional, cell-based
Conditions: Homo sapiens
Description: SANGER: Inhibition of human DSH1 cell growth in a cell viability assay.

SMILES	pIC50
Cc1ccc(C(=O)Nc2ccc(CN3CCN(C)CC3)c(C(F)(F)F)c2)cc1C#Cc1cnc2cccnn12 [PONATINIB]	< 6.29

Tested on: OMC-1;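 further: growth inhibition of the OMC-1 cell line, measured by a cell viability assay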
Assay: cells
Format: functional, cell-based, Homo sapiens
Conditions: Homo sapiens, OMC-1
Description: SANGER: Inhibition of human OMC-1 cell growth in a cell viability assay.

SMILES	pIC50
Cc1ccc(C(=O)Nc2ccc(CN3CCN(C)CC3)c(C(F)(F)F)c2)cc1C#Cc1cnc2cccnn12 [PONATINIB]	< 6.29

Tested on: LC-2-ad;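 further: growth inhibition of human LC-2-ad cells, read out with a cell viability assay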
Assay: cells
Format: functional, cell-based, Homo sapiens
Conditions: Homo sapiens, LC-2-ad
Description: SANGER: Inhibition of human LC-2-ad cell growth in a cell viability assay.

SMILES	pIC50
Cc1ccc(C(=O)Nc2ccc(CN3CCN(C)CC3)c(C(F)(F)F)c2)cc1C#Cc1cnc2cccnn12 [PONATINIB]	6.62

Tested on: EW-3;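 further: cell viability assay read-out, IC50 reflects inhibition of growth of the EW-3 cells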
Assay: cells
Format: functional, cell-based, Homo sapiens
Conditions: Homo sapiens, EW-3
Description: SANGER: Inhibition of human EW-3 cell growth in a cell viability assay.

SMILES	pIC50
Cc1ccc(C(=O)Nc2ccc(CN3CCN(C)CC3)c(C(F)(F)F)c2)cc1C#Cc1cnc2cccnn12 [PONATINIB]	< 6.29

Tested on: KNS-81-FD;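 further: growth inhibition of KNS-81-FD cells, read out with a cell viability assay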
Assay: cells
Format: functional, cell-based, Homo sapiens
Conditions: Homo sapiens, KNS-81-FD
Description: SANGER: Inhibition of human KNS-81-FD cell growth in a cell viability assay.

SMILES	pIC50
Cc1ccc(C(=O)Nc2ccc(CN3CCN(C)CC3)c(C(F)(F)F)c2)cc1C#Cc1cnc2cccnn12 [PONATINIB]	< 6.29

Tested on: CGTH-W-1;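 further: growth inhibition of human CGTH-W-1 cells measured by cell viability assay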
Assay: cells
Format: functional, cell-based, Homo sapiens
Conditions: Homo sapiens, CGTH-W-1
Description: SANGER: Inhibition of human CGTH-W-1 cell growth in a cell viability assay.

SMILES	pIC50
Cc1ccc(C(=O)Nc2ccc(CN3CCN(C)CC3)c(C(F)(F)F)c2)cc1C#Cc1cnc2cccnn12 [PONATINIB]	8.77

Tested on: TE-11;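 further: growth inhibition of human TE-11 cells, read out by a cell viability assay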
Assay: cells
Format: functional, cell-based
Conditions: Homo sapiens
Description: SANGER: Inhibition of human TE-11 cell growth in a cell viability assay.

SMILES	pIC50
Cc1ccc(C(=O)Nc2ccc(CN3CCN(C)CC3)c(C(F)(F)F)c2)cc1C#Cc1cnc2cccnn12 [PONATINIB]	< 6.29

Tested on: TE-5;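 further: inhibition of cell growth, read out by a cell viability assay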
Assay: cells
Format: functional, cell-based, Homo sapiens
Conditions: Homo sapiens, TE-5
Description: SANGER: Inhibition of human TE-5 cell growth in a cell viability assay.

SMILES	pIC50
Cc1ccc(C(=O)Nc2ccc(CN3CCN(C)CC3)c(C(F)(F)F)c2)cc1C#Cc1cnc2cccnn12 [PONATINIB]	< 6.29

Tested on: LS-411N
Assay: cells
Format: functional, cell-based, Homo sapiens
Conditions: Homo sapiens, LS-411N

SMILES	pIC50
Cc1ccc(C(=O)Nc2ccc(CN3CCN(C)CC3)c(C(F)(F)F)c2)cc1C#Cc1cnc2cccnn12 [PONATINIB]	< 6.29

Tested on: ES1;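 further: growth inhibition of ES1 cells, read out with a cell viability assay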
Assay: cells
Format: functional, cell-based, Homo sapiens
Conditions: Homo sapiens, ES1
Description: SANGER: Inhibition of human ES1 cell growth in a cell viability assay.

SMILES	pIC50
Cc1ccc(C(=O)Nc2ccc(CN3CCN(C)CC3)c(C(F)(F)F)c2)cc1C#Cc1cnc2cccnn12 [PONATINIB]	< 6.29

Tested on: RKO;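 further: growth inhibition of human RKO cells, read out with a cell viability assay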
Assay: cells
Format: functional, cell-based, Homo sapiens
Conditions: Homo sapiens, RKO
Description: SANGER: Inhibition of human RKO cell growth in a cell viability assay.

SMILES	pIC50
Cc1ccc(C(=O)Nc2ccc(CN3CCN(C)CC3)c(C(F)(F)F)c2)cc1C#Cc1cnc2cccnn12 [PONATINIB]	< 6.29

Tested on: BT-474
Assay: cells
Format: functional, cell-based, Homo sapiens
Conditions: Homo sapiens, BT-474
Description: SANGER: Inhibition of human BT-474 cell growth in a cell viability assay.

SMILES	pIC50
Cc1ccc(C(=O)Nc2ccc(CN3CCN(C)CC3)c(C(F)(F)F)c2)cc1C#Cc1cnc2cccnn12 [PONATINIB]	< 6.29

Tested on: LU-134-A
Assay: cells
Format: functional, cell-based, Homo sapiens
Conditions: Homo sapiens, LU-134-A
Description: SANGER: Inhibition of human LU-134-A cell growth in a cell viability assay.

SMILES	pIC50
Cc1ccc(C(=O)Nc2ccc(CN3CCN(C)CC3)c(C(F)(F)F)c2)cc1C#Cc1cnc2cccnn12 [PONATINIB]	< 6.29

Tested on: BB65-RCC;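 further: growth inhibition of the cell line, measured with a cell viability assay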
Assay: cells
Format: functional, cell-based, Homo sapiens
Conditions: Homo sapiens, BB65-RCC
Description: SANGER: Inhibition of human BB65-RCC cell growth in a cell viability assay.

SMILES	pIC50
Cc1ccc(C(=O)Nc2ccc(CN3CCN(C)CC3)c(C(F)(F)F)c2)cc1C#Cc1cnc2cccnn12 [PONATINIB]	< 6.29

Tested on: NCI-H446;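 further: growth inhibition of NCI-H446 cells determined by a cell viability assay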
Assay: cells
Format: functional, cell-based, Homo sapiens
Conditions: Homo sapiens, NCI-H446
Description: SANGER: Inhibition of human NCI-H446 cell growth in a cell viability assay.

SMILES	pIC50
Cc1ccc(C(=O)Nc2ccc(CN3CCN(C)CC3)c(C(F)(F)F)c2)cc1C#Cc1cnc2cccnn12 [PONATINIB]	< 6.29

Tested on: JVM-3;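 further: growth inhibition of human JVM-3 cells, read out with a cell viability assay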
Assay: cells
Format: functional, cell-based, Homo sapiens
Conditions: Homo sapiens, JVM-3
Description: SANGER: Inhibition of human JVM-3 cell growth in a cell viability assay.

SMILES	pIC50
Cc1ccc(C(=O)Nc2ccc(CN3CCN(C)CC3)c(C(F)(F)F)c2)cc1C#Cc1cnc2cccnn12 [PONATINIB]	< 6.29

Tested on: D-263MG
Assay: cells
Format: functional, cell-based, Homo sapiens
Conditions: Homo sapiens, D-263MG
Description: SANGER: Inhibition of human D-263MG cell growth in a cell viability assay.

SMILES	pIC50
Cc1ccc(C(=O)Nc2ccc(CN3CCN(C)CC3)c(C(F)(F)F)c2)cc1C#Cc1cnc2cccnn12 [PONATINIB]	< 6.29

Tested on: NOS-1;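 further: growth inhibition of the human NOS-1 cell line, read out with a cell viability assay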
Assay: cells
Format: functional, cell-based, Homo sapiens
Conditions: Homo sapiens, NOS-1
Description: SANGER: Inhibition of human NOS-1 cell growth in a cell viability assay.

SMILES	pIC50
Cc1ccc(C(=O)Nc2ccc(CN3CCN(C)CC3)c(C(F)(F)F)c2)cc1C#Cc1cnc2cccnn12 [PONATINIB]	6.61

Tested on: NCI-H1581;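 further: cell growth inhibition read out by a viability assay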
Assay: cells
Format: functional, cell-based, Homo sapiens
Conditions: Homo sapiens, NCI-H1581
Description: SANGER: Inhibition of human NCI-H1581 cell growth in a cell viability assay.

SMILES	pIC50
Cc1ccc(C(=O)Nc2ccc(CN3CCN(C)CC3)c(C(F)(F)F)c2)cc1C#Cc1cnc2cccnn12 [PONATINIB]	< 6.29

Tested on: NCI-H1092;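 further: cell growth inhibition measured with a cell viability assay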
Assay: cells
Format: functional, cell-based, Homo sapiens
Conditions: Homo sapiens, NCI-H1092
Description: SANGER: Inhibition of human NCI-H1092 cell growth in a cell viability assay.

SMILES	pIC50
Cc1ccc(C(=O)Nc2ccc(CN3CCN(C)CC3)c(C(F)(F)F)c2)cc1C#Cc1cnc2cccnn12 [PONATINIB]	< 6.29

Tested on: A253 cell line;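 further: growth inhibition of A253 cells, read out with a cell viability assay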
Assay: cells
Format: functional, cell-based, Homo sapiens
Conditions: Homo sapiens, A253
Description: SANGER: Inhibition of human A253 cell growth in a cell viability assay.

SMILES	pIC50
Cc1ccc(C(=O)Nc2ccc(CN3CCN(C)CC3)c(C(F)(F)F)c2)cc1C#Cc1cnc2cccnn12 [PONATINIB]	< 6.29

Tested on: HT
Assay: cells
Format: functional, cell-based, Homo sapiens
Conditions: Homo sapiens, HT
Description: SANGER: Inhibition of human HT cell growth in a cell viability assay.

SMILES	pIC50
Cc1ccc(C(=O)Nc2ccc(CN3CCN(C)CC3)c(C(F)(F)F)c2)cc1C#Cc1cnc2cccnn12 [PONATINIB]	< 6.29

Tested on: EW-1;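 further: growth inhibition of the human EW-1 cell line, read out by a cell viability assay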
Assay: cells
Format: functional, cell-based, Homo sapiens
Conditions: Homo sapiens, EW-1
Description: SANGER: Inhibition of human EW-1 cell growth in a cell viability assay.

SMILES	pIC50
Cc1ccc(C(=O)Nc2ccc(CN3CCN(C)CC3)c(C(F)(F)F)c2)cc1C#Cc1cnc2cccnn12 [PONATINIB]	< 6.29

Tested on: MN-60;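 further: growth inhibition of the MN-60 cell line, determined with a cell viability assay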
Assay: cells
Format: functional, cell-based, Homo sapiens
Conditions: Homo sapiens, MN-60
Description: SANGER: Inhibition of human MN-60 cell growth in a cell viability assay.

SMILES	pIC50
Cc1ccc(C(=O)Nc2ccc(CN3CCN(C)CC3)c(C(F)(F)F)c2)cc1C#Cc1cnc2cccnn12 [PONATINIB]	< 6.29

Tested on: KP-N-YS;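 further: cell viability assay measuring inhibition of cell line growth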
Assay: cells
Format: functional, cell-based, Homo sapiens
Conditions: Homo sapiens, KP-N-YS
Description: SANGER: Inhibition of human KP-N-YS cell growth in a cell viability assay.

SMILES	pIC50
Cc1ccc(C(=O)Nc2ccc(CN3CCN(C)CC3)c(C(F)(F)F)c2)cc1C#Cc1cnc2cccnn12 [PONATINIB]	< 6.29
